Results as given in publication PMC10108200, “Reaction Pathways for the Enzymatic Degradation of Poly(Ethylene Terephthalate): What Characterizes an Efficient PET‐Hydrolase?” (Chembiochem, 2022).

Target: T1, IsP (Pseudideonella sakaiensis, UniProt A0A0K8P6T7)
T1 construct: gene ISF6_4831; heterologously expressed and purified
Experiment: initial rates by RP-HPLC, Michaelis-Menten fit
Type: biochemical
Conditions: 50 °C, 10 min, 0-2 mM substrate, 0.01-0.5 μM enzyme
Excerpt: initial rates by RP-HPLC, Michaelis-Menten fit on IsP

T1 sequence (A0A0K8P6T7 28-290): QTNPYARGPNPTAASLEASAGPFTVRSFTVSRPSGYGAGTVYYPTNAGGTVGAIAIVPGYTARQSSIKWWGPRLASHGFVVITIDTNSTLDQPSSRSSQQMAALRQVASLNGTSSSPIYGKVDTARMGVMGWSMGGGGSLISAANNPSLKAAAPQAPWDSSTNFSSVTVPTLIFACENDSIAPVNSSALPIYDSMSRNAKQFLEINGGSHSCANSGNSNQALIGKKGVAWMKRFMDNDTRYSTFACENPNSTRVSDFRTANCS

SMILES | Km [µM]
O=C(O)c1ccc(C(=O)OCCOC(=O)c2ccc(C(=O)OCCO)cc2)cc1 [TETE] | 140 ± 36
O=C(O)c1ccc(C(=O)OCCOC(=O)c2ccc(C(=O)OCCOC(=O)c3ccc(C(=O)O)cc3)cc2)cc1 [TETET] | 58 ± 29
